Data reported in ChEMBL document CHEMBL1201862, “PubChem BioAssay data set” (2004).
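96-well plates; 48 h exposure; 5 concentrations. Endpoints by linear interpolation between flanking doses. Not reached: highest tested concentration assigned. GI50 marks 50% less growth.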 The source made the active and inactive calls. No stated cut-off is given here; in the data, active = GI50 up to about 1.1 µM and inactive = higher.

Assays:
Experiment in all cases: inhibition of tumour cell growth, NCI panel, 48 h
[1] = tested on: SK-OV-3
[2] = tested on: COLO 205
[3] = tested on: NCI-H23
[4] = tested on: EKVX
[5] = tested on: HL-60
[6] = tested on: KM-20L2
[7] = tested on: SK-MEL-5
[8] = tested on: NCI-H226
[9] = tested on: LXFL 529
[10] = tested on: KM12
[11] = tested on: Malme-3M
[12] = tested on: HOP-92
[13] = tested on: SNB-75
[14] = tested on: HT-29
[15] = tested on: SNB-78
[16] = tested on: TK-10
[17] = tested on: A498
[18] = tested on: NCI-H522
[19] = tested on: SR

Measured: GI50

Cc1cc(Br)ccc1/N=N/C1C(=O)ON=C1c1ccccc1 (centres undefined)
inactive: [1] > 100 µM | [2] 16 µM | [3] > 100 µM | [4] 67 µM | [5] 32.1 µM | [6] 55.2 µM | [7] 53.5 µM | [8] > 100 µM | [9] 69.5 µM | [10] > 100 µM | [11] > 100 µM | [12] > 100 µM | [13] > 100 µM | [14] 47.1 µM | [15] > 100 µM | [16] 69.3 µM | [17] 35 µM | [18] 40.6 µM | [19] 48 µM
